Entries after “also recorded” stand apart in the source; their conditions may differ. Where no end group is shown, it is not given here.
Legend:
C2C12 myoblasts [1] = assay: MTT cell viability assay in C2C12 myoblasts; conditions: for Effect: viability (hit direction): screening at 1 μM, hit selection by MAD/quartile/SSMD/robust SSMD
Method: The mouse myoblast C2C12 cell line (ATCC, CRL-1772) was cultured at 37° C. in a 5% CO2 humidified incubator in Dulbecco's modified Eagle medium (DMEM; Thermo Fisher Scientific). For C2C12 cell proliferation, the medium was supplemented with 10% fetal bovine serum (FBS; Thermo Fisher Scientific), 100 units/ml penicillin, and 100 μg/ml streptomycin (1% Pen/Strep; Thermo Fisher Scientific). The proliferation medium was renewed each 2-3 days and confluency was kept below 80%. For differentiation of the C2C12 myoblasts into myotubes, proliferation medium was replaced by differentiation medium when cells reached 80% confluency.
Viability of QSM was assessed using the 3-(4,5-dimethylthiazol-2-yl)-2,5-diphenyltetrazolium bromide (MTT) assay. Briefly, C2C12 myoblasts were seeded in a 96-well plate (3×10^4 cells/well). 24 hours post-seeding, the wells were treated with QSM (1 μM), placebo or positive control (DMSO 2%) and incubated for 24 hours at 37° C. Next, 20 μL of MTT reagent (5 mg/mL; Sigma-Aldrich) was added to each well and the plates were returned to the incubator for 2.5 hours. After incubation, supernatant was removed from the wells and 150 μL of DMSO was added to release and dissolve the formazan crystals. Absorbance was measured at 570 nm using a microplate reader (Thermo Fisher).
The MTT assay is a widely validated and accepted viability assay for screening experiments. In this assay, the reduction of MTT into formazan, catalysed by living cell enzymes, is used as a marker of cell viability. If QSM are cytotoxic or cytostatic towards C2C12 cells, a decrease in MTT reduction is expected (viability less than 100%), while an increased C2C12 proliferation caused by QSM will result in an increased MTT reduction (viability more than 100%).
In a further set of experiments, the dose response effect of QSPs Q22 and Q184 was assessed on MTT reduction of C2C12 myotubes (tables 7.4 and 7.5).

C2C12 myoblasts [2] = assay: Differentiation of C2C12 myoblasts into myotubes (LADD stain, ImageJ); type: cell-based, mouse; conditions: for differentiation capacity relative to the median of all samples: QSM 1 μM at d0 and d3, myotube formation at d6; for Effect: differentiation (hit direction): screening at 1 μM, myotube formation
Method: Differentiation medium consisted of DMEM supplemented with 2% horse serum (HS; Thermo Fisher Scientific) and 1% Pen/Strep. All experiments were done with C2C12 passage numbers below 30.
C2C12 myoblasts (1×10^4 cells/well) were seeded in 48-well plates and incubated until they reached 80% confluency, after which the proliferation medium was removed and replaced by differentiation medium (d0). The differentiation medium was renewed at d3. QSM (1 μM), placebo or positive controls (vitamin D3) were added to the cells together with the differentiation medium at d0 and d3. After 6 days of incubation (d6), myotubes were stained with the combined nuclear and cytoplasmatic LADD Multiple Stain (as described in R. McColl, M. Nkosi, C. Snyman, C. Niesler, Analysis and quantification of in vitro myoblast fusion using the LADD Multiple Stain, Biotechniques 61(6) (2016) 323-326). LADD Multiple Stain is a solution containing toluidine blue (VWR) and basic fuchsin (Fluka) in 30% (v/v) ethanol. The stained myotubes were assessed under a phase-contrast microscope equipped with a camera (Olympus CKX53) at a total magnification of 100×. Five different images were taken per well. The amount of myotube formation was automatically quantified using ImageJ software.
Mimicking the in vivo muscle physiology, C2C12 myoblasts are able to differentiate into myotubes when they are adjacent to each other and a differentiating extracellular medium is present. Muscle wasting diseases are characterized by a decreased myotube formation. To evaluate the effects of QSM on the differentiation capacities of C2C12 myoblasts, the C2C12 cells were treated in differentiation medium with QSM at d0 and d3, and evaluated the myotube formation at d6. At d6, the staining protocol of McColl et al. was used to visualize the myotubes (references see above). The differentiation capacity of all QSM was between 71% (Q013) and 145% (AI-2) relative to the median of all samples (FIG. 1).

[3] = system: GDF15 production by C2C12 myotubes; assay: GDF15 production by C2C12 myotubes (sandwich ELISA), mitochondrial changes; type: cell-based, mouse; conditions: for GDF15 secretion, effect relative to median: QSM 1 μM, C2C12 myotubes; for Effect: GDF15 (hit direction): screening at 1 μM
Method: GDF15 levels were determined in the supernatants of C2C12 cells after QSM, placebo or positive control (oligomyin) treatment, using a sandwich ELISA (R&D Systems). A similar protocol as described for the IL-6 determination was used.
GDF15 is considered a useful biomarker for direct or indirect changes in mitochondrial function. Moreover, GDF15 is implicated in muscle wasting diseases like sarcopenia, chronic obstructive pulmonary disease cachexia and critical illness.

C. elegans = C. elegans swimming behaviour (muscle wasting/aging model); type: in vivo; parameters: key to Wave initiation rate / Asymmetry / Stretch / Curling / Travel speed / Brush stroke / Activity index: relative to placebo set to 1.0; conditions: DMSO positive control
From the text: The C. elegans model is a well-established aging model: they diminish in locomotory vigor as they age, a phenomenon that is attributed to a physical deterioration of muscle and synapses. QSPs were introduced in the medium of living C. elegans. As comparisons, a placebo experiment was used as negative control, while DMSO was used as positive control.
Using automatic, objective imaging software, different swimming behaviour variables associated with this decrease in locomotory vigor or muscle wasting were investigated. Wave initiation rate, travel speed, brush stroke and activity index do decrease with muscle wasting, while body wave number, asymmetry, curling and stretch do increase with muscle wasting, as described in Restif et al., Plos Computational Biology, 2014.
More in particular, the results in these tables show Q184-associated changes in three swimming parameters in wild-type adults at day 3 (Table 9) and day 12 (Table 10) (n=120-170 from 3 independent trials for each condition). Data presented are means±s.e.m (placebo set to 1.0).

[4] = system: IL-6 production by C2C12 myotubes; assay: IL-6 production by C2C12 myotubes (sandwich ELISA); type: cell-based, mouse; conditions: for Effect: inflammation (IL-6 production, hit direction): screening at 1 μM
Method: C2C12 myoblasts (2.5×10^4 cells/well) were seeded in 96-well plates and incubated until they reached 80% confluency, after which the proliferation medium was removed and replaced by differentiation medium. After 6 days of incubation with daily renewed differentiation medium, the cells were treated with 1 μM of QSM, placebo or positive control (LPS) for 24 hours. IL-6 levels were determined in the supernatants using a sandwich ELISA (eBioscience), using IL-6 capture antibody, blocking solution, samples and standards, IL-6 detection antibody, avidin-horseradish peroxidase and substrate solution which were added sequentially, with washing steps in between. After stopping the reaction with H2SO4 solution, the absorbance was measured at 450 nm and 570 nm (correction wavelength) using a microplate reader (ThermoLab Systems). Concentrations were determined using the standard curves generated with known concentrations of IL-6.
Several pro-inflammatory cytokines are elevated in sepsis, cancer, ageing and other catabolic diseases. They are thought to trigger muscle wasting (partly) through NF-kB pathways. […] In these screening experiments, the effects of QSM on myotube IL-6 production were assessed using a sandwich ELISA.
In a further set of experiments, using similar methods as described for the screening experiments, a number of QSPs were tested for a dose response relation in C2C12 cells.

C2C12 cells = assay: Co-treatment of C2C12 cells with QSP and ala-scan derivative, IL-6 response; type: cell-based, mouse; conditions: for effect on Q055 mediated IL-6 induction: Q055 75 μM plus derivative 90 μM
From the text: Means±SEM, n=6. * P<0.05; ** P<0.01, *** P<0.001; paired Student's t test.

human muscle cells = assay: IL-6 production dose response in human muscle cells; type: cell-based; conditions: FIG. 12
Method: Differentiation medium consisted of high glucose Glutamax DMEM supplemented with penicillin (100 units/ml), streptomycin (100 μg/ml) and insulin (10 μg/mL).
Using similar methods as described for the C2C12 experiments, a number of QSPs were tested for a dose response relation in human muscle cells.

[5] = day 3, placebo set to 1.0, Q184 at 1 μM
[6] = day 12, placebo set to 1.0, Q184 at 1 μM

CCCC(O)CC(=O)N[C@H]1CCOC1=O (stereo partly shown) [3-OH-C6-HSL]
Effect: viability (hit direction) (C2C12 myoblasts [1]): increasing hit; also recorded: ↑ viability

C[C@]12OC[C@H](O)[C@@]1(O)O[B-](O)(O)O2 [AI-2]
Effect: viability (hit direction) (C2C12 myoblasts [1]): increasing both C2C12 viability and GDF15 production
differentiation capacity relative to the median of all samples (C2C12 myoblasts [2]): 145%
Effect: differentiation (hit direction) (C2C12 myoblasts [2]): increased myotube formation; also recorded: ↑ differentiation
GDF15 secretion, effect relative to median [3]: 216%
Effect: GDF15 (hit direction) [3]: increased GDF15 production

CCCCCC(=O)N[C@H]1CCOC1=O [C6-HSL]
Effect: GDF15 (hit direction) [3]: increased GDF15 production

C[S+](C)[O-] [DMSO, dimethylsulfoxide, reference compound]
Activity index (C. elegans; [5]): 0.60
Asymmetry (C. elegans; [5]): 3.11
Body wave number (C. elegans; [5]): 2.04
Brush stroke (C. elegans; [5]): 0.68
Curling (C. elegans; [5]): 1.55
Stretch (C. elegans; [5]): 1.10
Travel speed (C. elegans; [5]): 0.85
Wave initiation rate (C. elegans; [5]): 0.58
Activity index (C. elegans; [6]): 0.31
Asymmetry (C. elegans; [6]): 2.50
Body wave number (C. elegans; [6]): 2.59
Brush stroke (C. elegans; [6]): 0.48
Curling (C. elegans; [6]): 0.08
Stretch (C. elegans; [6]): 0.91
Travel speed (C. elegans; [6]): 0.49
Wave initiation rate (C. elegans; [6]): 0.39

AGTKPQGKPASNLVECVFSLFKKCN [Q011]
Effect: viability (hit direction) (C2C12 myoblasts [1]): decreasing viability hits
Effect: GDF15 (hit direction) [3]: increased GDF15 production

AIFILAS [Q013]
differentiation capacity relative to the median of all samples (C2C12 myoblasts [2]): 71%

AKDEH [Q015]
Effect: viability (hit direction) (C2C12 myoblasts [1]): decreasing viability hits
Effect: GDF15 (hit direction) [3]: increased GDF15 production

ALILTLVS [Q017]
Effect: viability (hit direction) (C2C12 myoblasts [1]): decreasing viability hits

ARNQT [Q018]
Effect: viability (hit direction) (C2C12 myoblasts [1]): decreasing viability hits

DLRGVPNPWGWIFGR [Q030]
Effect: viability (hit direction) (C2C12 myoblasts [1]): decreasing viability hits

DLRNIFLKIKFKKK [Q031]
Effect: viability (hit direction) (C2C12 myoblasts [1]): decreasing viability hits

DSVCASYF [Q040]
Effect: viability (hit direction) (C2C12 myoblasts [1]): decreasing viability hits

ERPVG [Q052]
Effect: viability (hit direction) (C2C12 myoblasts [1]): increasing hits; also recorded: increasing viability hit
Effect: inflammation (IL-6 production, hit direction) [4]: decreased the IL-6 production; also recorded: ↓ inflammation

ESRLPKIRFDFIFPRKK [Q054]
relative IL-6 production ([4]; QSM 1 μM, 24 h, relative to median of all QSM): 51%
Effect: inflammation (IL-6 production, hit direction) [4]: decreased the IL-6 production; also recorded: ↓ inflammation

ESRVSRIIADFLFQRKK (Synthetic QSP055-A9)
effect on Q055 mediated IL-6 induction (C2C12 cells): antagonistic effect

ESRVSRIILDFLFQRKK [Q055]
Relative IL-6 ([4]; concentration 0.20 μM): 0.94
Relative IL-6 ([4]; concentration 0.39 μM): 1.07
Relative IL-6 ([4]; concentration 1.56 μM): 0.93
Relative IL-6 ([4]; concentration 3.13 μM): 1.24
Relative IL-6 ([4]; concentration 6.25 μM): 1.24
Relative IL-6 ([4]; concentration 12.5 μM): 3.60
Relative IL-6 ([4]; concentration 25 μM): 5.56
Relative IL-6 ([4]; concentration 50 μM): 8.94
Relative IL-6 ([4]; concentration 100 μM): 6.48
Effect: inflammation (IL-6 production, hit direction) [4]: increased IL-6 production; also recorded: ↑ inflammation
dose response relation, IL6 production (human muscle cells): Typical curves were obtained

FLVMFLSG [Q093]
GDF15 secretion, effect relative to median [3]: 137%
Effect: GDF15 (hit direction) [3]: increased GDF15 production

GKAEF [Q099]
GDF15 secretion, effect relative to median [3]: 80%
Effect: GDF15 (hit direction) [3]: decreased the GDF15 production

GLWEDILYSLNIIKHNNTKGLHHPIQL [Q101]
Effect: viability (hit direction) (C2C12 myoblasts [1]): increasing hits; also recorded: ↑ viability

GSLSTFFALFNRSFTQALGK (Synthetic Q176-A9)
effect on Q176 mediated IL-6 induction (C2C12 cells; Q176 50 μM plus derivative 60 μM): inhibiting the Q176 mediated IL-6 induction

LFSLVLAG [Q132]
Effect: viability (hit direction) (C2C12 myoblasts [1]): decreasing viability hits

LPFEF [Q134]
Effect: viability (hit direction) (C2C12 myoblasts [1]): decreasing viability hits

MAGNSSNFIHKIKQIFTHR [Q138]
Effect: viability (hit direction) (C2C12 myoblasts [1]): increasing hits; also recorded: ↑ viability

MKAEH [Q140]
Effect: viability (hit direction) (C2C12 myoblasts [1]): increasing hits; also recorded: ↑ viability

NNWNN [Q019]
Effect: differentiation (hit direction) (C2C12 myoblasts [2]): increased myotube formation; also recorded: ↑ differentiation

QNSPNIFGQWM [Q097]
Effect: viability (hit direction) (C2C12 myoblasts [1]): decreasing viability hits

SDLPFEH [Q164]
Effect: viability (hit direction) (C2C12 myoblasts [1]): increasing hits; also recorded: ↑ viability

SRNAT [Q192, SRNAT]
viability relative to the median of all samples (MTT) (C2C12 myoblasts [1]; QSM 1 μM, 24 h, C2C12 myoblasts, n=2): 120%
Effect: viability (hit direction) (C2C12 myoblasts [1]): strong increasing hit; also recorded: ↑ viability

SRVSAIILDFLFQRKK (Synthetic Q055-A6)
effect on Q055 mediated IL-6 induction (C2C12 cells): inhibited the Q055 mediated IL-6 induction

YSPWTNF [Q007]
Effect: inflammation (IL-6 production, hit direction) [4]: increased IL-6 production; also recorded: ↑ inflammation

YSTCDFIM [Q148]
GDF15 secretion, effect relative to median [3]: 80%

— patent US20230218714A1, “DIAGNOSTICS AND USE OF QUORUM SENSING MOLECULES IN MUSCLE WASTING” (Universiteit Gent, priority 2019, published 2023)
